What was measured:
Assay in all cases: relative viability (nuclei count vs DMSO), 5 days (fraction); higher = more cells survive
17-AAG + Palbociclib = compound: C=CCNC1=C2C[C@@H](C)C[C@H](OC)[C@H](O)[C@@H](C)/C=C(\C)[C@H](OC(N)=O)[C@@H](OC)/C=C\C=C(/C)C(=O)NC(=CC1=O)C2=O [17-AAG] + CC(=O)c1c(C)c2cnc(Nc3ccc(N4CCNCC4)cn3)nc2n(C2CCCC2)c1=O [Palbociclib] (partner 0.5 µM)
Procedure, shortened: (§1)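 A single step with final 0.05% Triton X-100, 1% formaldehyde and 1 ug/ml Hoechst fixed the cells and stained nuclei 5 days after treatment. Lung cancer cell lines in 1536-well plates had been treated by pin tool the day after seeding with one drug alone or a fixed anchor-drug dose plus five library-drug doses (not always all listed) in √10 steps, and nuclei were counted on 4× images. Relative viability is the ratio of nuclei in treated wells to nuclei in vehicle wells, taken as the median of duplicate plates.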

17-AAG + Alpelisib = compound: C=CCNC1=C2C[C@@H](C)C[C@H](OC)[C@H](O)[C@@H](C)/C=C(\C)[C@H](OC(N)=O)[C@@H](OC)/C=C\C=C(/C)C(=O)NC(=CC1=O)C2=O [17-AAG] + Cc1nc(NC(=O)N2CCC[C@H]2C(N)=O)sc1-c1ccnc(C(C)(C)C(F)(F)F)c1 [Alpelisib] (partner 2 µM)
Procedure, shortened: as §1

17-AAG + Pemetrexed = compound: C=CCNC1=C2C[C@@H](C)C[C@H](OC)[C@H](O)[C@@H](C)/C=C(\C)[C@H](OC(N)=O)[C@@H](OC)/C=C\C=C(/C)C(=O)NC(=CC1=O)C2=O [17-AAG] + Nc1nc2[nH]cc(CCc3ccc(C(=O)N[C@@H](CCC(=O)O)C(=O)O)cc3)c2c(=O)[nH]1 [Pemetrexed] (partner 0.2 µM)
Procedure, shortened: as §1

17-AAG + Olaparib = compound: C=CCNC1=C2C[C@@H](C)C[C@H](OC)[C@H](O)[C@@H](C)/C=C(\C)[C@H](OC(N)=O)[C@@H](OC)/C=C\C=C(/C)C(=O)NC(=CC1=O)C2=O [17-AAG] + O=C(c1cc(Cc2n[nH]c(=O)c3ccccc23)ccc1F)N1CCN(C(=O)C2CC2)CC1 [Olaparib] (partner 8 µM)
Procedure, shortened: as §1

Row | Cell Line | relative viability (17-AAG + Palbociclib; first compound 0.00128 µM) | relative viability (17-AAG + Palbociclib; first compound 0.004048 µM) | relative viability (17-AAG + Palbociclib; first compound 0.0128 µM) | relative viability (17-AAG + Palbociclib; first compound 0.04048 µM) | relative viability (17-AAG + Palbociclib; first compound 0.128 µM) | relative viability (17-AAG + Alpelisib; first compound 0.00128 µM) | relative viability (17-AAG + Alpelisib; first compound 0.004048 µM) | relative viability (17-AAG + Alpelisib; first compound 0.0128 µM) | relative viability (17-AAG + Alpelisib; first compound 0.04048 µM) | relative viability (17-AAG + Alpelisib; first compound 0.128 µM) | relative viability (17-AAG + Pemetrexed; first compound 0.00128 µM) | relative viability (17-AAG + Pemetrexed; first compound 0.004048 µM) | relative viability (17-AAG + Pemetrexed; first compound 0.0128 µM) | relative viability (17-AAG + Pemetrexed; first compound 0.04048 µM) | relative viability (17-AAG + Pemetrexed; first compound 0.128 µM) | relative viability (17-AAG + Olaparib; first compound 0.00128 µM) | relative viability (17-AAG + Olaparib; first compound 0.004048 µM) | relative viability (17-AAG + Olaparib; first compound 0.0128 µM) | relative viability (17-AAG + Olaparib; first compound 0.04048 µM) | relative viability (17-AAG + Olaparib; first compound 0.128 µM)
1 | LK-2 | 0.849 | 0.64 | 0.644 | 0.236 | 0.0922 | 1.13 | 0.998 | 1.28 | 0.217 | 0.233 | 0.266 | 0.292 | 0.211 | 0.101 | 0.0875 | 0.831 | 0.765 | 0.266 | 0.149 | 0.123
2 | NCI-H522 | 1.02 | 1.15 | 0.896 | 0.647 | 0.419 |  |  |  |  |  | 0.974 | 1.01 | 0.673 | 0.764 | 0.372 | 0.517 | 0.878 | 0.505 | 0.485 | 0.399
3 | NCI-H596 |  |  |  |  |  | 0.479 | 0.648 | 0.564 | 0.454 | 0.358 | 0.558 | 0.542 | 0.508 | 0.505 | 0.337 | 0.784 | 0.739 | 0.674 | 0.48 | 0.371
4 | NCI-H727 | 0.661 | 0.706 | 0.588 | 0.482 | 0.425 | 0.519 | 0.63 | 0.358 | 0.182 | 0.192 |  |  |  |  |  | 0.619 | 0.737 | 0.696 | 0.707 | 0.386
5 | NCI-H1299 |  |  |  |  |  | 1.04 | 1.05 | 1 | 0.94 | 0.729 |  |  |  |  |  | 1.01 | 0.922 | 0.965 | 0.605 | 0.282
6 | NCI-H1563 |  |  |  |  |  | 0.964 | 0.853 | 0.616 | 0.591 | 0.514 | 0.773 | 0.898 | 0.468 | 0.452 | 0.414 |  |  |  |  | 
7 | NCI-H1648 |  | 0.348 | 0.32 | 0.431 | 0.387 |  |  |  |  |  |  | 0.904 | 0.649 | 0.29 | 0.288 |  | 0.716 | 0.921 | 0.9 | 0.317
8 | NCI-H1650 | 0.294 | 0.187 | 0.122 | 0.115 | 0.0961 |  |  |  |  |  | 0.336 | 0.383 | 0.351 | 0.168 | 0.15 | 0.721 | 0.636 | 0.147 | 0.156 | 0.113
9 | NCI-H1703 |  |  |  |  |  | 0.366 | 0.152 | 0.141 | 0.155 | 0.134 |  |  |  |  |  | 0.512 | 0.183 | 0.144 | 0.164 | 0.105
10 | NCI-H2342 | 0.458 | 0.542 | 0.504 | 0.495 | 0.525 |  |  |  |  |  | 0.803 | 0.854 | 0.782 | 0.589 | 0.39 | 0.506 | 0.4 | 0.487 | 0.437 | 0.374
11 | SW 900 | 0.575 | 0.511 | 0.277 | 0.192 | 0.125 |  |  |  |  |  | 0.455 | 0.437 | 0.242 | 0.139 | 0.168 | 0.892 | 0.491 | 0.244 | 0.192 | 0.163

Reference: the supplement of paper PMC10307832
